This is an account of results in patent publication US11560391B2, “Sulfonylurea compounds as inhibitors of interleukin-1 activity” (Genentech, Inc., priority 2018, dated 2023).

In one assay the test system is THP-1 ASC-GFP cells. Briefly: THP-1 ASC-GFP speck assay (NLRP3 inflammasome activation, nigericin). The class given is cell-based. To be noted: THP1-ASC-GFP; PMA-differentiated, LPS primed, 10 μM nigericin. How it is done: THP-1 ASC-GFP cell line was purchased from Invivogen, San Diego, for infammasome activation assay. THP-1 ASC-GFP cells stably express a 37.6 kDa ASC::GFP fusion protein that enables monitoring of spec formation by microscopy after activation of NLRP3 dependent inflammasome pathway. Cells were maintained at a density of 600,000 cells/mL in growth media consisting of RPMI 1640, 2 mM L-glutamine, 25 mM HEPES and 10% heat inactivated fetal bovine serum at 37° C. and 5% CO2. Cells were passaged every 3-4 days and used for assays for up to 20 passages.
THP-1 ASC-GFP cells were collected by centrifuging cells at 800 RPM for 5 minutes. Cell culture supernatant was removed and cells were re-suspended in fresh media at density of 1×10^6 cells/mL in assay media consisting of RPMI 1640, 2 mM L-glutamine, 25 mM HEPES and 10% heat inactivated fetal bovine serum. Phorbol 12-myristate 13-acetate (PMA) (Invivogen,tlrl-pma) was added to the cell suspension at a final concentration of 500 ng/ml and mixed thoroughly. 40,000 cells were added per well of a 384 well plate and differentiated into macrophages overnight at 37° C. and 5% CO2. Cells were primed with 1 μg/mL of lipopolysaccharide (Invivogen Ultrapure lipopolysaccharide from E. coli, tlrl-3pelps) in assay media for 3 hours at 37° C. and 5% CO2. After priming, media was removed and THP-1 ASC-GFP cells were preincubated with serially diluted test compounds with starting concentration of 40 μM followed by 2-fold dilution for a 20-point curve or vehicle (DMSO) for 30 min in assay media at 37° C. and 5% CO2. Cells were then stimulated with 10 μM nigericin (Invivogen, tlrl-nig-5) for 90 min at 37° C. and 5% CO2 to activate NLRP3 dependent inflammasome pathway and spec formation. After stimulation, cells were fixed with 4.8% paraformaldehyde (Electron Microscopy Sciences #15710-S) and incubated at room temperature for 15 min. Cells were then washed 3-times with 100 μL of phosphate buffered saline and permeabilized in the presence of premeablization/block buffer for 20 min at room temperature. Cells were then washed 3-times with 100 μL phosphate buffered saline and incubated for 1 hr at room temperature in the presence of hoechst. After staining with Hoechst, cells were washed 3-times with 100 μL phosphate buffered saline and imaged for ASC spec formation.
THP-1 ASC-GFP cells were imaged in 488 and Hoechst channels. Hoechst channel was used for cell count and 488 channel was used to identify number of GFP ASC specks in imaged fields. Percentage of cells with a spec was calculated by dividing the number of GFP positive spots by total number of cells.

The subject of a further assay is PBMCs. The assay is described as follows: CTG (CellTiter-Glo) viability assay of compound-treated LPS and nigericin stimulated PBMCs. To be noted: Homo sapiens, PBMC. The assay is classed as cell-based, human. How it is done:
(§1) Human peripheral blood mononuclear cells (PBMCs), consisting of lymphocytes (T, B and NK cells), monocytes and dendritic cells, are freshly isolated from human peripheral blood from healthy donors. Cells are obtained through an IRB approved donor program by iXCells Biotechnologies where all the donors are tested for bacterial and viral infections. Cells are purified from peripheral blood using ficoll gradient centrifugation.
(§2) Fresh or cryopreserved PMBCs are seeded in V-bottom 96-well plate at 0.5-1×10^5 cells per well and incubated overnight at 37° C. with 5% CO2 in RPMI 1640 medium with GlutaMAX supplement, 4.5 g/L D-glucose, 10% Fetal Bovine Serum (FBS), […] Sodium Pyruvate, 1% Penicillin/Streptomycin, 10 mM HEPES and 0.05 mM of […]. Freshly isolated or cryopreserved KCs cells are seeded in flat-bottom 96-well plates at 0.6-1.5×10^5 cells/well and incubated overnight at 37° C., 5% CO2 in RPMI 1640 Medium with GlutaMAX supplement, FBS, 1% Penicillin/Streptomycin and 10 mM HEPES. The following day, the cells are primed with 100 ng/mL of lipopolysaccharides (LPS; Sigma Aldrich) in FBS-free RPMI 1640 for 3 h. After the priming step, the media is removed and PBMCs are pre-incubated with serial concentrations of test compounds (0.00017-10 uM) or vehicle (DMSO) for 30 min in FBS-free media prior to addition of the NLRP3 activator. Cells are then stimulated with 10 μM Nigericin (Sigma Aldrich; InvivoGen) for 1.5 h. Plates were centrifuged at 1,500 rpm for 3 minutes to pellet cells and supernatant was transferred into new plates for subsequent experiments.
Viability of compound treated cells is measured using CellTiter-Glo® assay (Promega, Madison, Wis.) that measures the ATP content of cells which is proportional to the number of live cells within a well. This is a counter-screen to establish that the reduction of IL-1β levels in LPS and nigericin stimulated and compound treated cells is not due to cytotoxicity, but rather through the inhibition of the inflammasome pathway. Compounds inhibiting NRLP3 inflammasome activation ultimately increase the viability of LPS and nigericin stimulated cells by blocking NLRP3 mediated pyroptosis that would otherwise lead to cell lysis.

Another assay addresses T1, NLRP3 inflammasome (Homo sapiens, UniProt Q96P20).
T1 construct: freshly isolated from human peripheral blood from healthy donors; StemCells Technologies; host or cells: primary human PBMCs
The assay is described as follows: NLRP3 inflammasome activation assay in LPS-primed, nigericin-stimulated PBMCs, IL-1β release. The class given is cell-based. Particulars: 10 μM nigericin. How it is done:
Some of the following assays were used to determine the inhibitory activity of the compounds on the NLRP3 inflammasome using a common inflammasome activation stimuli-nigericin.
as §1, §2
For ELISA assays cells are seeded into 96-well plates. Post study, supernatants are removed and the levels of mature IL-1β, IL18 and TNFα (Quantikine ELISA, R&D systems) are measured in cell conditioned media by ELISA according to manufacturer's instructions.
Human frozen PBMCs were purchased from StemCells Technologies. Cells were rapidly thawed in 37° C. water bath and resuspended in fresh assay media consisting of RPMI 1640 Medium containing 1% sodium pyruvate, 10 mM HEPES, 2.5 g/L glucose and 55 μM 2-Mercaptoethanol. Cell density was adjusted to 8.1×10^5 cells/mL. Cells were primed by adding lipopolysaccharide (Invivogen Ultrapure lipopolysaccharide from E. coli, tlrl-3pelps) at a final concentration of 100 ng/mL in cell suspension. 37 μL of cell suspension with LPS was seeded per well of a 384 well plate and incubated for 3 hours at 37° C. and 5% CO2. After priming, PBMCs were preincubated with serially diluted test compounds with starting concentration of 40 μM followed by 2-fold dilution for a 20-point curve or vehicle (DMSO) for 30 min in assay media at 37° C. and 5% CO2. Cells were then stimulated with 10 μM nigericin (Invivogen, tlrl-nig-5) for 90 min at 37° C. and 5% CO2 to activate NLRP3 dependent inflammasome pathway and IL-1β release in cell culture supernatant. Cells were centrifuged at 1200 RPM for 1 min and 40 μL of supernatant was transferred into fresh plates and stored at −80° C. until IL-1β analysis.
16 μL of supernatant was added to white 384 well HTRF plates, followed by addition of 4 μL of HTRF cocktail in each well. Plates were quickly centrifuged, sealed and incubated overnight at room temperature. Next day, HTRF signal was read on a Pherastar and ratio of 665/620 was calculated based on manufacturer's protocol to obtain concentration of IL-1β in cell culture supernatant.

[1] abbreviates: LPS and nigericin stimulated cells, read-out: CTG pIC50 (converted).
Where [2] appears, read: LPS 100 ng/mL priming, read-out: IL-1B pIC50 (converted).

The structures appear in SMILES notation. Read-outs that look alike come from different tables or passages of the source.

T1 sequence (Q96P20 whole entry): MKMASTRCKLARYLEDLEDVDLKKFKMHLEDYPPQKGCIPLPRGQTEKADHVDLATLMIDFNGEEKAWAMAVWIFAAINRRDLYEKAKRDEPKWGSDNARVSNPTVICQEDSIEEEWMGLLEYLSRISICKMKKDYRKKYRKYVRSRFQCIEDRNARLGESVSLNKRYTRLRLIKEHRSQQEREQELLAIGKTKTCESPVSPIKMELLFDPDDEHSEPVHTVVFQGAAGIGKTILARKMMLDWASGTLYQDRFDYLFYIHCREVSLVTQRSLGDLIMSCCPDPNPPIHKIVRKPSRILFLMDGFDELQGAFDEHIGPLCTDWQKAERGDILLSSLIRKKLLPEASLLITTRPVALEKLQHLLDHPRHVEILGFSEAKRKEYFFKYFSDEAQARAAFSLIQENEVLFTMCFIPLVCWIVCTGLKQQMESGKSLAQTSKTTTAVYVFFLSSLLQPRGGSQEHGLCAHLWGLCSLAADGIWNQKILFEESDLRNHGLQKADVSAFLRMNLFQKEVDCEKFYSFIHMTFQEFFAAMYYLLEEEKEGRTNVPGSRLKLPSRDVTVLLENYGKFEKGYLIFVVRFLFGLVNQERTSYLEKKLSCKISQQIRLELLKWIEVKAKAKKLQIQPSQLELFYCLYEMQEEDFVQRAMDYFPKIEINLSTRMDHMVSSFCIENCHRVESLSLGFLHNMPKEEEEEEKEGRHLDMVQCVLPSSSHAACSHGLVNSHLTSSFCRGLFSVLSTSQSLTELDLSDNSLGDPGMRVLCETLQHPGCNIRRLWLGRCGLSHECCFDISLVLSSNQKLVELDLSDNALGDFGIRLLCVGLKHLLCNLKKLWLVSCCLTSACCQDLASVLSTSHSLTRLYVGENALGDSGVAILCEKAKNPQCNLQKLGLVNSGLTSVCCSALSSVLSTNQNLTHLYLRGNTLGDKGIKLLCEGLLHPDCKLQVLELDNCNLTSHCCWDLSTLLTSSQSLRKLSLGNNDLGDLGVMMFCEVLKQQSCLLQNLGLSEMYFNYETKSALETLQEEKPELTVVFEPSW

In turn, `CN[C@@H]1COc2c(S(=O)(=O)NC(=O)Nc3c(C(C)C)nn(C)c3C(C)C)cnn2C1` [Example 73a, (S)—N-((3,5-diisopropyl-1-methyl-1H-pyrazol-4-yl)carbamoyl)-6-(methylamino)-6,7-dihydro-5H-pyrazolo[5,1-b][1,3]oxazine-3-sulfonamide, ammonia] registered an IC50 in the assay with THP-1 ASC-GFP cells of 8700 nM.
Still for that read-out and setting: the same measure for `CC(C)c1nn(CC(F)F)c(C(C)C)c1NC(=O)NS(=O)(=O)c1cnn2c1OCCC2` [Example 63, N-((1-(2,2-difluoroethyl)-3,5-diisopropyl-1H-pyrazol-4-yl)carbamoyl)-6,7-dihydro-5H-pyrazolo[5,1-b][1,3]oxazine-3-sulfonamide, ammonia]: 350 nM.
Still for that read-out and setting: the same measure for `CC(C)c1nn(CC(F)(F)F)c(C(C)C)c1NC(=O)NS(=O)(=O)c1cnn2c1OCCC2` [Example 58, N-((3,5-diisopropyl-1-(2,2,2-trifluoroethyl)-1H-pyrazol-4-yl)carbamoyl)-6,7-dihydro-5H-pyrazolo[5,1-b][1,3]oxazine-3-sulfonamide, ammonia]: 200 nM; for `CC(C)c1nn(CC(F)F)c(C(C)C)c1NC(=O)NS(=O)(=O)c1cnn2c1OCC(C)(C)C2` [Example 57, N-((1-(2,2-difluoroethyl)-3,5-diisopropyl-1H-pyrazol-4-yl)carbamoyl)-6,6-dimethyl-6,7-dihydro-5H-pyrazolo[5,1-b][1,3]oxazine-3-sulfonamide, ammonia]: 560 nM.
The same measure, in the same setting: as for `CC(C)c1cc(C(F)(F)F)nc(C(C)C)c1NC(=O)NS(=O)(=O)c1cnn2c1OCC(C)(C)C2` [Example 82, N-((2,4-diisopropyl-6-(trifluoromethyl)pyridin-3-yl)carbamoyl)-6,6-dimethyl-6,7-dihydro-5H-pyrazolo[5,1-b][1,3]oxazine-3-sulfonamide], the figure is 1400 nM; as for `CC(C)c1nn(CC(F)(F)F)c(C(C)C)c1NC(=O)NS(=O)(=O)c1cnn2c1OCC(C)(C)C2` [Example 75, N-((3,5-diisopropyl-1-(2,2,2-trifluoroethyl)-1H-pyrazol-4-yl)carbamoyl)-6,6-dimethyl-6,7-dihydro-5H-pyrazolo[5,1-b][1,3]oxazine-3-sulfonamide, ammonia], 420 nM; as for `CC(C)n1nc2c(c1NC(=O)NS(=O)(=O)c1cnn3c1OCC(C)(C)C3)CCC2` [Example 61, N-((2-isopropyl-2,4,5,6-tetrahydrocyclopenta[c]pyrazol-3-yl)carbamoyl)-6,6-dimethyl-6,7-dihydro-5H-pyrazolo[5,1-b][1,3]oxazine-3-sulfonamide], 900 nM.
Take `CN[C@@H]1COc2c(S(=O)(=O)NC(=O)Nc3c(C(C)C)nn(CC(F)F)c3C(C)C)cnn2C1` [Example 70a, (S)—N-((1-(2,2-difluoroethyl)-3,5-diisopropyl-1H-pyrazol-4-yl)carbamoyl)-6-(methylamino)-6,7-dihydro-5H-pyrazolo[5,1-b][1,3]oxazine-3-sulfonamide, ammonia]: the IC50 in the assay on THP-1 ASC-GFP cells was 4100 nM.
On the same count and under the same terms, as for `CO[C@@H]1COc2c(S(=O)(=O)NC(=O)Nc3c(C(C)C)cc(C(F)(F)F)nc3C(C)C)cnn2C1` [Example 80a, (S)—N-((2,4-diisopropyl-6-(trifluoromethyl)pyridin-3-yl)carbamoyl)-6-methoxy-6,7-dihydro-5H-pyrazolo[5,1-b][1,3]oxazine-3-sulfonamide, ammonia], the figure is 150 nM.
As to `CN[C@@H]1COc2c(S(=O)(=O)NC(=O)Nc3c(C(C)C)nn(C(F)(F)F)c3C(C)C)cnn2C1` [Example 64a, (S)—N-((3,5-diisopropyl-1-(trifluoromethyl)-1H-pyrazol-4-yl)carbamoyl)-6-(methylamino)-6,7-dihydro-5H-pyrazolo[5,1-b][1,3]oxazine-3-sulfonamide, ammonia], the IC50 with THP-1 ASC-GFP cells is 240 nM.
Turning to `CN[C@@H]1COc2c(S(=O)(=O)NC(=O)Nc3c(C(C)C)cc(OC)nc3C(C)C)cnn2C1` [drawing 408], the IC50 is under 100 nM in the assay on PBMCs (setting [1]) and 100 to 1000 nM on NLRP3 inflammasome (setting [2]).
With `Cc1onc(-c2ccccc2)c1NC(=O)NS(=O)(=O)c1cnn2c1OCCC2` [drawing 373], the IC50 with PBMCs (setting [1]) and on NLRP3 inflammasome (setting [2]) was over 10000 nM each time.
In the case of `CC(C)c1cc(N(C)C)nc(C(C)C)c1NC(=O)NS(=O)(=O)c1cnn2c1OCCC2` [drawing 418], the IC50 with PBMCs (setting [1]) was 100 to 1000 nM; on NLRP3 inflammasome (setting [2]), 1000 to 10000 nM.
Take `CC(C)n1nc2c(c1NC(=O)NS(=O)(=O)c1cnn3c1OCCC3)CCC2` [Example 44, N-((2-isopropyl-2,4,5,6-tetrahydrocyclopenta[c]pyrazol-3-yl)carbamoyl)-6,7-dihydro-5H-pyrazolo[5,1-b][1,3]oxazine-3-sulfonamide]: the IC50 was over 10000 nM in the assay on PBMCs (read-out: PMBC CTG IC50) and 1220 nM at NLRP3 inflammasome (PBMC, LPS priming, read-out: PMBC IL-1β IC50).
Turning to `CC(C)c1cncc(C(C)C)c1NC(=O)NS(=O)(=O)c1cnn2c1OCCC2` [drawing 393], the IC50 in the assay on PBMCs (setting [1]) and on NLRP3 inflammasome (setting [2]) was 100 to 1000 nM each time.
With `O=C(NC1(c2ccccc2)CC1)NS(=O)(=O)c1cnn2c1OCCC2` [drawing 376], the IC50 in the assay with PBMCs (setting [1]) and on NLRP3 inflammasome (setting [2]) was over 10000 nM each time.
With `CCn1nc(C(C)C)c(NC(=O)NS(=O)(=O)c2cnn3c2OC[C@@H](OC)C3)c1C(C)C` [drawing 406], the IC50 was 100 to 1000 nM in the assay with PBMCs (setting [1]) and 1000 to 10000 nM on NLRP3 inflammasome (setting [2]).
